“Also recorded” adds a separate entry of the source.
Tests used:
HUVEC cell line = assay: TCS Biologicals Human Angiogenesis Model (tubule formation); format: cell-based
Procedure: The effect of sulphated dextrin on vessel formation of the HUVEC cell line was performed by the use of the TCS Biologicals Human Angiogenesis Model. The assay is supplied as a growing culture of the HUVEC cell line together with culture matrix and additional human cells present (the exact nature of the cells is not known) at the earliest stages of tubule formation in a 24-well format. The positive control reagent was a standard stock solution of VEGF and the negative control was Suramin. After removing the well seals, the cultures were examined for cell morphology to confirm their viability.
Growth medium was provided with the kit and was used to make up the sulphated dextrin at concentrations ranging from 0-1000 μg/ml. The existing medium was aspirated from the wells and replaced with medium containing the dextrin sulphate concentrations in a 0.5ml volume. This was placed at 37° C., in a 5% CO2 containing atmosphere. This was repeated on days 4, 7 and 9.
Between days 7-11 cultures were fixed by the enclosed fixative and stained with the mouse monoclonal anti-PECAM-1 antibody at a 1:4000 dilution (present in blocking buffer). 0.5ml of diluted antibody was added per well and incubated for 60 minutes at 37° C. The secondary antibody (goat anti-mouse lgG alkaline phosphatase conjugate) was diluted 1:500 in blocking buffer and added to the wells after washing for 60 minutes at 37° C. After washing the plate the substrate was prepared; BCIP/NBT tablets were dissolved in distilled water and added to the wells. Following incubation for 5-10 minutes the wells were washed and were imaged using the Leica Qwin image analysis software package.

HUVECs = assay: Proliferation induced by bFGF or VEGF, [3H]-thymidine incorporation; format: cell-based, human; conditions: 100 μg/ml, bFGF 10 ng/ml or VEGF 20 ng/ml
Procedure: FIG. 3: Graph to show the effect of sulphated dextrins on the proliferation of HUVECs induced by bFGF or VEGF was measured using a [^3H]-thymidine incorporation assay.
For these experiments, HUVECs (5×10^3/well) were suspended in Medium M199 containing 10% FCS, 2 mM L-glutamine, 100 Iu/ml penicillin and 0.1 mg/ml streptomycin. After 24 h, the media was replaced with fresh media containing either D2S (100 μg/ml) or D6S (100 μg/ml) for 1 h following which either bFGF (10 ng/ml) or VEGF (20 ng/ml, Preprotech, Rocky Hill, N.J.) were added. […] [^3H]-thymidine (1 mCi/ml, Amersham Pharrnacia, Bucks, UK) was added 48 h later and the cells cultured for a further 16 h. Cells were harvested using an automated Betaplate 96 well harvester (Wallac Oy, Turku, Finland) and the radioactivity counted using a Betaplate liquid scintillation counter.

KSY-1 cell line = assay: Proliferation with bFGF or VEGF, [3H]-thymidine incorporation; format: cell-based, human
[1] = system: human placental blood vessels; assay: Placental blood vessel in fibrin clot in vitro angiogenesis assay; format: cell-based; conditions: 100 μg/ml; for new vessel formation compared to media alone: up to day 22
Procedure: Compounds were tested at a final concentration of 100 μg/ml. The degree of new vessel formation was quantified blind twice a week using a visual analog scale in which 0=no growth, 1=minimal new vessel formation, 2=significant new vessel formation, and 3=dense new vessel formation. An angiogenesis score was derived from each count by dividing the total score (i.e. the sum of all the wells) by the maximum possible score and then expressing the result as a percentage. This graph is representative of 3 experiments with a total of 20 wells/plate/experiment for each compound tested.
Blood vessels (approximately 1-2 mm diameter) were excised from the apical surface of human placentas within 6 h of an elective Caesarean birth. Use of the placentas for these studies were approved by the Ethics Committee of Hammersmith Hospitals Trust, London. The blood vessels were placed in Hank's balanced salt solution and cut into 1-2 mm fragments using fine dissecting forceps and iridectomy scissors. Residual clots were removed and the blood vessels then soaked in Hank's balanced salt solution.
The effect of each compound on new blood vessel formulation was determined by culturing the blood vessels within a fibrin clot in 24-well tissue culture plates. Thirty μl of bovine thrombin (50 NIH U/ml in 0.15 M sodium chloride) was added to each well followed by 1 ml/well of 3 mg/ml bovine fibrinogen in Medium 199. The thrombin and fibrinogen were rapidly mixed and a blood vessel fragment placed in the centre of the well. Fibrin gel formation occurred rapidly and left the vessel suspended within the gel. One ml/well of Medium 199 supplemented with 20% foetal calf serum, 250 IU/ml penicillin and 250 U/ml streptomycin was then added to each well. ε-arnino-n-caproic acid was also added (300 μg/ml) for the first 4 days and twice weekly thereafter (50 μg/ml) in order to prevent dissolution of the fibrin clot. The vessels were cultured at 37° C. in a humidified incubator for 25 days with the media being changed twice weekly.
The degree of new vessel formation was quantified blind twice a week by three different observers using a visual analogue scale in which 0=no growth, 1=very little new vessel formation, 2=significant new vessel formation and 3=dense new vessel formation. An angiogenesis score was derived from the counts undertaken for each well by dividing the total score by the maximum score possible and then expressing the result as a percentage. On each of 3 separate occasions, each compound was tested in 20 replicate wells. […] Some of the fibrin clots were fixed overnight in 10% formalin, paraffin embedded, sectioned for histology and then stained for the endothelial cell markers Factor VIII and CD31. Results are expressed as the mean±sem. A students t-test was used to determine the level of significance.

HPB-ALL cells = assay: [3H]-dextrin 2-sulphate binding to HPB-ALL cells
HeLa cells = assay: [3H]-dextrin 2-sulphate binding to HeLa cells; conditions: n=9
[2] = system: peripheral blood mononuclear cells and monocyte-derived-macrophages; assay: D2S cell surface binding to peripheral blood mononuclear cells and monocyte-derived-macrophages; conditions: PBMC and monocyte-derived-macrophages, read-out: dissociation constant
Procedure: Our previous studies of peripheral blood mononuclear cells and monocyte-derived-macrophages have shown that D2S binds to the cell surface in a specific and saturable manner with a dissociation constant of 82±14 nM.

[3] = Accumulation in cells of the peritoneal cavity and peripheral blood of treated patients; format: in vivo, human
Kaposi's sarcoma = assay: Phase I clinical trial in patients with late stage AIDS: Kaposi's sarcoma; format: in vivo, human
HIV-1 = conditions: intra-peritoneal route, patients with late stage AIDS
[4] = system: human umbilical vein endothelial cells; assay: Endothelial microtubule formation assay on Matrigel; format: cell-based; conditions: HUVEC on Matrigel, scored at 18 h
Procedure: FIG. 6: The photomicrographs show endothelial microtubule formation in the presence of sulphated dextrins (×40 magnification). A visual analogue scale was used to determine the extent of tube formation and scored on a scale from 0 (all cells remain single) to 4 (all cells involved in tubular structures) as previously described (ref: 1,14). Space bar=100 microns.
The endothelial microtuble formation assay was performed by isolating human umbilical vein endothelial cells from umbilical cords within 6 h of delivery by caesarean section. The umbilical vein was cannulated and 0.1% collagenase in phosphate buffered saline was introduced and incubated for 20 minutes. The endothelial cells liberated by the collagenase were obtained by washing the umbilical vein with Medium 199. The cells were washed three times with Medium 199 and then cultured in tissue culture flasks coated with fibronectin. […]
Aliquots of Matrigel were dispensed into 35 mm diameter tissue culture dishes on ice and then incubated at 37° C. for 10 min to allow the gel to set. […] At various time points from 8-24 hours, the plates were examined and scored using a published scheme from 0-4, where 0=all adherent cells remain single, and 4=all adherent cells involved in tubular structures. New vessel formation was quantified blind by three different observers at 18 h. […]

Procedure for HUVEC's: (§1) Human umbilical vein endothelial cells (HUVEC's) were also harvested from umbilical cords by digestion with collagenase type II and cultured in 1% gelatin coated tissue culture flasks in Medium 199 supplemented with 20% fetal bovine serum, 100 IU/ml penicillin, 0.1 mg/ml streptomycin, 2mM L-glutamine, 10 U/ml heparin and 20 μg/ml endothelial cell growth supplement. The KS Y-1 cell line which was established from the pleural effusion of a patient with AIDS-associated Kaposi's sarcoma was also studied. It was CD34 and CD31 positive confirming it as being of endothelial origin.
(§2) The effect of sulphated dextrins on the growth of HUVEC's and KSY-1 cells which were being cultured in the presence of basic fibroblast growth factor (bFGF) or vascular endothelial growth factor (VEGF) was also determined.
Procedure for KSY-1 cells: as §1, §2

Question: With `Cc1ccc(C(=O)Nc2ccc(S(=O)(=O)O)c3cc(S(=O)(=O)O)cc(S(=O)(=O)O)c23)cc1NC(=O)c1cccc(NC(=O)Nc2cccc(C(=O)Nc3cc(C(=O)Nc4ccc(S(=O)(=O)O)c5cc(S(=O)(=O)O)cc(S(=O)(=O)O)c45)ccc3C)c2)c1` [Suramin, reference compound] as the compound, how does the “branch points, inhibition” value (HUVEC cell line; negative control reagent) read?
Answer: 98%

Question: What about the “tubule number, inhibitory effect compared to vehicle control” value (HUVEC cell line; negative control reagent) of the same compound?
Answer: 51%

Question: For dextrin 6-sulphate, which “effect on proliferation induced by bFGF or VEGF” value (“effect on proliferation induced” for short) (HUVECs) is on record?
Answer: do not interfere

Question: What about the “effect on proliferation induced” value (HUVECs; listed as D6S) of the same compound?
Answer: no significant effect

Question: What about the “effect on proliferation with bFGF or VEGF” value (KSY-1 cell line) of the same compound?
Answer: do not interfere

Question: What about the “new vessel formation compared to media alone” value [1] of the same compound?
Answer: reduced the rate of new vessel formation

Question: What about the “new vessel formation compared to media alone” value ([1]; listed as Dextrin 6-sulphate) of the same compound?
Answer: significant decrease in new vessel formation

Question: Which Bmax (HPB-ALL cells) does the source give for dextrin 2-sulphate here?
Answer: 4.8±0.3 pmol/10^6 cells

Question: What about the Kd (HPB-ALL cells; specific and saturable binding, read-out: dissociation constant (Kd)) of the same compound?
Answer: 82 ± 14 nM

Question: What about the Bmax (HeLa cells) of the same compound?
Answer: 4.1±0.2 pmol/10^6 cells

Question: What about the Kd (HeLa cells) of the same compound?
Answer: 107 ± 12 nM

Question: What about the Kd [2] of the same compound?
Answer: 82 ± 14 nM

Question: What about the “accumulation in cells of treated patients” value [3] of the same compound?
Answer: accumulated in the peritoneal macrophages and mesothelial cells

Question: What about the “effect on proliferation induced” value (HUVECs) of the same compound?
Answer: do not interfere

Question: And the “effect on proliferation induced” value (HUVECs; listed as D2S)?
Answer: no significant effect

Question: What about the “effect on proliferation with bFGF or VEGF” value (KSY-1 cell line) of the same compound?
Answer: do not interfere

Question: What about the “new blood vessel formation score (scale 0-3)” value ([1]; day 22) of the same compound?
Answer: 1

Question: What about the “new vessel formation compared to media alone” value [1] of the same compound?
Answer: reduced the rate of new vessel formation; also recorded: significant reduction in the number of new vessels

Question: What about the “Kaposi's sarcoma clinical response” value (Kaposi's sarcoma) of the same compound?
Answer: clinical regression of Kaposi's sarcoma in three patients

Question: What about the “viral load of HIV-1” value (HIV-1) of the same compound?
Answer: significant and sustained fall

Question: Which results are given for VEGF?
Answer: branch points, elevation (HUVEC cell line; positive control reagent): 131%; tubule number, elevation compared to vehicle control (HUVEC cell line; positive control reagent): 174%

Question: With dextrin as the compound, how does the “new vessel formation compared to media alone” value [1] read?
Answer: no difference

Question: What about the “cell viability (Trypan blue exclusion)” value (HUVEC's) of the same compound?
Answer: > 95%

Question: What about the “rate of cell division” value (HUVEC's; HUVEC's, 7 day period, twice weekly cell counts) of the same compound?
Answer: Neither dextrin nor sulphated dextrins affected

Question: What about the “cell viability (Trypan blue exclusion)” value (KSY-1 cells) of the same compound?
Answer: > 95%

Question: And the “rate of cell division” value (KSY-1 cells; KSY-1 cells, 7 day period, twice weekly cell counts)?
Answer: Neither dextrin nor sulphated dextrins affected

Question: With dextrin 2,6-sulphate as the compound, how does the “anti-angiogenic activity (microtubule formation)” value [4] read?
Answer: more than that seen with D2S but less than that seen with D6S

From patent US6689764B1, “Treatment of angiogenesis dependent conditions with dextrin sulphate” (priority 1999, dated 2004)
